# Assay results from US20250388575A1, “HETEROBIFUNCTIONAL COMPOUNDS AND METHODS OF TREATING DISEASE” (Halda Therapeutics OpCo, Inc., priority 2022, published 2025).
# Where two headings read alike, the source gives them in different places.
# Assays:
# T47D cells = assay: Cellular growth inhibition assay for T47D cells, CellTiter-Glo; assay type: cell-based, human; details: 72 hours treatment, CellTiter-Glo 2.0
# Summary of the method: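 Cells are plated at 3000/well and allowed 24 h before treatment. Test compound in medium containing 0.5% DMSO is then added, with DMSO-only wells as negative control, and plates are incubated 72 h at 37 °C. ATP luminescence (CellTiter-Glo 2.0) is then fitted to four parameters to derive GI50.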
# [1] = test system: T-Rex 293 cell line SC3 cells having increased expression of androgen receptor protein; assay: Cellular growth inhibition, T-Rex 293 SC3 cells with increased androgen receptor expression (doxycycline), CellTiter-Glo; assay type: cell-based; details: T-Rex 293 SC3 cells with increased androgen receptor expression (exposed to 10 ng/mL doxycycline), 72 hours, CellTiter-Glo; read-out: GI50
# Summary of the method: (§1)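 SC3, a T-Rex 293 clone with doxycycline-inducible wild-type androgen receptor, was seeded in phenol red-free DMEM with 10% charcoal-dextran FBS, with or without 10 ng/mL doxycycline. Compound added at 24 h (0.5% DMSO) for 72 h at 37° C. CellTiter-Glo 2.0 luminescence; GI50 from four-parameter fit.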
# BRD4-BD2 = BRD4-BD2 (Homo sapiens (Human), UniProt O60885); assay: bromoKdELECT assay for binding affinity to BRD4-BD2; details: 11-point 3-fold dilution
# Experimental: (§2) Compounds were tested using a bromoKdELECT assay. T7 phage strains displaying bromodomains were grown in parallel in 24-well blocks in an E. coli host derived from the BL21 strain. E. coli were grown to log-phase and infected with T7 phage from a frozen stock (multiplicity of infection=0.4) and incubated with shaking at 32° C. until lysis (90-150 minutes). The lysates were centrifuged (5,000×g) and filtered (0.2 μm) to remove cell debris. Streptavidin-coated magnetic beads were treated with biotinylated small molecule or acetylated peptide ligands for 30 minutes at room temperature to generate affinity resins for bromodomain assays. The liganded beads were blocked with excess biotin and washed with blocking buffer (SeaBlock (Pierce), 1% BSA, 0.05% Tween 20, 1 mM DTT) to remove unbound ligand and to reduce nonspecific phage binding. Binding reactions were assembled by combining bromodomains, liganded affinity beads, and test compounds in 1× binding buffer (17% SeaBlock, 0.33×PBS, 0.04% Tween 20, 0.02% BSA, 0.004% Sodium azide, 7.4 mM DTT). Test compounds were prepared as 1000× stocks in 100% DMSO. Kds were determined using an 11-point 3-fold compound dilution series with one DMSO control point. All compounds for Kd measurements are distributed by acoustic transfer (non-contact dispensing) in 100% DMSO. The compounds were then diluted directly into the assays such that the final concentration of DMSO was 0.09%. All reactions performed in polypropylene 384-well plates. Each was a final volume of 0.02 ml. The assay plates were incubated at room temperature with shaking for 1 hour and the affinity beads were washed with wash buffer (1×PBS, 0.05% Tween 20). The beads were then resuspended in elution buffer (1×PBS, 0.05% Tween 20, 2 μM non-biotinylated affinity ligand) and incubated at room temperature with shaking for 30 minutes. The bromodomain concentration in the eluates was measured by qPCR.
# BRD4-BD1 = BRD4-BD1 (Homo sapiens (Human), UniProt O60885); assay: bromoKdELECT assay for binding affinity to BRD4-BD1; details: 11-point 3-fold dilution
# Experimental: as §2
# [2] = test system: T-Rex 293 cell line SC3 cells lacking increased expression of androgen receptor protein; assay: Cellular growth inhibition, T-Rex 293 SC3 cells lacking increased androgen receptor expression (no doxycycline), CellTiter-Glo; assay type: cell-based; details: T-Rex 293 SC3 cells lacking increased androgen receptor expression (not exposed to doxycycline), 72 hours, CellTiter-Glo; read-out: GI50
# Summary of the method: as §1
# VCaP cells = assay: Cellular growth inhibition assay for VCaP cells, CellTiter-Glo; assay type: cell-based, human; details: VCaP cells, 72 hours, CellTiter-Glo, read-out: GI50
# Summary of the method: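 GI50 values come from four-parameter curve fits of luminescence data normalized to a zero baseline. Compound, in medium with 0.5% DMSO, was added one day after plating and left for 72 h before CellTiter-Glo 2.0 addition.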
Structure (SMILES),GI50 (T47D cells) [nM],Kd (BRD4-BD2) [nM],Kd (BRD4-BD1) [nM],GI50 (VCaP cells) [nM],GI50 (T47D cells; Homo sapiens) [nM],GI50 (VCaP cells; Homo sapiens) [nM],GI50 [1] [nM],GI50 [2] [nM]
CCS(=O)(=O)c1ccc(Oc2ccc(COC3CCN(c4ccc(C(=O)N[C@H]5CC[C@H](Oc6ccc(C#N)c(Cl)c6)CC5)nn4)CC3)c(F)c2F)c(-c2cn(C)c(=O)c3[nH]ccc23)c1 [I-53],< 500,> 2500,> 2500,< 500,,,< 500,< 500
Cn1cc(-c2cc(C(C)(C)O)ccc2Oc2ccc(CCC3CCN(c4ccc(C(=O)N[C@H]5CC[C@H](Oc6ccc(C#N)c(Cl)c6)CC5)nn4)CC3)cc2F)c2cc[nH]c2c1=O [I-111],< 500,> 2500,> 2500,< 500,,,< 500,> 3000
CCS(=O)(=O)Nc1ccc(Oc2ccc(CCC3CCN(c4ccc(C(=O)N[C@H]5CC[C@H](Oc6ccc(C#N)c(Cl)c6)CC5)nn4)CC3)cc2)c(-c2cn(C)c(=O)c3[nH]ccc23)c1 [I-38],< 500,500 to 2500,500 to 2500,< 500,,,< 500,< 500
CCS(=O)(=O)c1ccc(Oc2cccc(OCCCC3CCN(c4ccc(C(=O)N[C@H]5CC[C@H](Oc6ccc(C#N)c(Cl)c6)CC5)nn4)CC3)c2F)c(-c2cn(C)c(=O)c3[nH]ccc23)c1 [I-15],,500 to 2500,500 to 2500,,,< 500,< 500,< 500
CCS(=O)(=O)c1ccc(Oc2ccc(CCC3CCN(c4ccc(C(=O)N[C@H]5CC[C@H](Oc6ccc(C#N)c(Cl)c6)CC5)nn4)CC3)c(F)c2)c(-c2cn(C)c(=O)c3[nH]ccc23)c1 [I-54],< 500,> 2500,> 2500,< 500,,,< 500,< 500
Cn1cc(-c2cc(C(C)(C)O)ccc2Oc2cc(F)c(CCOC3CCN(c4ccc(C(=O)N[C@H]5CC[C@H](Oc6ccc(C#N)c(Cl)c6)CC5)nn4)CC3)c(F)c2)c2cc[nH]c2c1=O [I-110],,> 2500,> 2500,,1500 to 3000,< 500,< 500,500 to 1500
"CCS(=O)(=O)Cc1ccc(Oc2ccc(CCC3CCN(c4ccc(C(=O)NC5CCC(Oc6ccc(C#N)c(Cl)c6)CC5)nn4)CC3)cc2)c(-c2cn(C)c(=O)c3[nH]ccc23)c1 (stereo not drawn) [I-154, N-[4-(3-chloro-4-cyano-phenoxy)cyclohexyl]-6-[4-[2-[4-[4-(ethylsulfonylmethyl)-2-(6-methyl-7-oxo-1H-pyrrolo[2,3-c]pyridin-4-yl)phenoxy]phenyl]ethyl]-1-piperidyl]pyridazine-3-carboxamide]",,500 to 2500,500 to 2500,< 500,,,< 500,< 500

# Further lines, with some results ahead:
GI50 (T47D cells) [nM],Kd (BRD4-BD2) [nM],Kd (BRD4-BD1) [nM],GI50 (VCaP cells) [nM],GI50 (T47D cells; Homo sapiens) [nM],GI50 (VCaP cells; Homo sapiens) [nM],Structure (SMILES),GI50 [1] [nM],GI50 [2] [nM]
,50 to 500,50 to 500,,< 500,< 500,"CCS(=O)(=O)c1ccc(Oc2ccc(N3CC4(CCN(c5ccc(C(=O)NC6CCC(Oc7ccc(C#N)c(Cl)c7)CC6)nn5)CC4)C3)cc2)c(-c2cn(C)c(=O)c3[nH]ccc23)c1 (stereo not drawn) [I-90, N-[4-(3-chloro-4-cyano-phenoxy)cyclohexyl]-6-[2-[4-[4-ethylsulfonyl-2-(6-methyl-7-oxo-1H-pyrrolo[2,3-c]pyridin-4-yl)phenoxy]phenyl]-2,7-diazaspiro[3.5]nonan-7-yl]pyridazine-3-carboxamide]",< 500,< 500
,< 50,< 50,,< 500,< 500,CCS(=O)(=O)c1ccc(Oc2cccc(CCN3CCN(c4ccc(C(=O)N[C@H]5CC[C@H](Oc6ccc(C#N)c(Cl)c6)CC5)nn4)CC3)c2F)c(-c2cn(C)c(=O)c3[nH]ccc23)c1 [I-55],< 500,< 500
,50 to 500,50 to 500,,< 500,< 500,"CN(c1ccc(Oc2ccc(C(C)(C)O)cc2-c2cn(C)c(=O)c3[nH]ccc23)cc1)C1CCN(c2ccc(C(=O)N[C@H]3CC[C@H](Oc4ccc(C#N)c(Cl)c4)CC3)nn2)CC1 [I-137, N-[4-(3-chloro-4-cyano-phenoxy)cyclohexyl]-6-[4-[4-[4-(1-hydroxy-1-methyl-ethyl)-2-(6-methyl-7-oxo-1H-pyrrolo[2,3-c]pyridin-4-yl)phenoxy]-N-methyl-anilino]-1-piperidyl]pyridazine-3-carboxamide]",< 500,> 3000
< 500,500 to 2500,500 to 2500,< 500,,,CCS(=O)(=O)c1ccc(Oc2cccc(OCCC3CCN(c4ccc(C(=O)N[C@H]5CC[C@H](Oc6ccc(C#N)c(Cl)c6)CC5)nn4)CC3)c2F)c(-c2cn(C)c(=O)c3[nH]ccc23)c1 [I-42],< 500,< 500
,< 50,< 50,,,< 500,"CCS(=O)(=O)Nc1ccc(Oc2cccc(OCCOCCOCCOCCOCCOC3CCN(c4ccc(C(=O)N[C@H]5CC[C@H](Oc6ccc(C#N)c(Cl)c6)CC5)nn4)CC3)c2)c(-c2cn(C)c(=O)c3[nH]ccc23)c1 [I-3, N-[4-(3-chloro-4-cyano-phenoxy)cyclohexyl]-6-[4-[2-[2-[2-[2-[2-[3-[4-(ethylsulfonylamino)-2-(6-methyl-7-oxo-1H-pyrrolo[2,3-c]pyridin-4-yl)phenoxy]phenoxy]ethoxy]ethoxy]ethoxy]ethoxy]ethoxy]-1-piperidyl]pyridazine-3-carboxamide]",< 500,> 3000
,< 50,< 50,,< 500,< 500,CCS(=O)(=O)c1ccc(Oc2ccc(CN3CC4(CCN(c5ccc(C(=O)N[C@H]6CC[C@H](Oc7ccc(C#N)c(Cl)c7)CC6)nn5)CC4)C3)cc2)c(-c2cn(C)c(=O)c3[nH]ccc23)c1 [I-57],< 500,< 500
,< 50,< 50,,< 500,< 500,CCS(=O)(=O)c1ccc(Oc2ccc(CN3CC4(C3)CN(c3ccc(C(=O)N[C@H]5CC[C@H](Oc6ccc(C#N)c(Cl)c6)CC5)nn3)C4)cc2)c(-c2cn(C)c(=O)c3[nH]ccc23)c1 [I-56],< 500,< 500
< 500,50 to 500,50 to 500,< 500,,,CCS(=O)(=O)c1ccc(Oc2ccc(CCC3CCN(c4ccc(C(=O)N[C@H]5CC[C@H](Oc6ccc(C#N)c(Cl)c6)CC5)nn4)CC3)nc2)c(-c2cn(C)c(=O)c3[nH]ccc23)c1 [I-219],< 500,< 500
< 500,50 to 500,50 to 500,< 500,,,CCS(=O)(=O)c1ccc(Oc2ccc(CCC3CCN(c4ccc(C(=O)N[C@H]5CC[C@H](Oc6ccc(C#N)c(Cl)c6)CC5)nn4)CC3)cc2)c(-c2cn(C)c(=O)c3[nH]ccc23)c1 [I-50],< 500,< 500
